Patent publication US9050341B2, “Methods of treating drug resistant and other tumors by administering 6,7-dialkoxy quinazoline derivatives” (NATCO PHARMA LIMITED, priority 2009, dated 2015)

Experiments:
Assay in all cases: KinomeScan kinase profiling
Type in all cases: binding
ADCK4 = biological target: T1, ADCK4 (Homo sapiens, UniProt Q96D53)
T1 construct: host or cells: E. coli host derived from BL21 (T7 phage lysate)
Procedure, shortened: (§1)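 Kinases were expressed as T7 phage fusions in a BL21-derived E. coli host and the cleared lysates were used. Ligand beads were blocked with biotin and buffer (1% BSA, 0.05% Tween 20, 1 mM DTT). Compounds came from 40× DMSO stocks, and phage in the eluates was titred by qPCR.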

AURKB = biological target: T2, AURKB (Homo sapiens, UniProt Q96GD4)
T2 construct: purchased Ambit Biosciences Corp (KinomeScan); host or cells: E. coli host derived from the BL21 strain, T7 phage
Procedure, shortened: as §1

BLK = biological target: T3, BLK (Homo sapiens, UniProt P51451)
T3 construct: purchased Ambit Biosciences Corp (KinomeScan); host or cells: E. coli host derived from the BL21 strain, T7 phage
Procedure, shortened: as §1

CAMK1G = biological target: T4, CAMK1G (Homo sapiens, UniProt Q96NX5)
T4 construct: purchased Ambit Biosciences Corp (KinomeScan); host or cells: E. coli host derived from the BL21 strain, T7 phage
Procedure, shortened: as §1

CLK1 = biological target: T5, CLK1 (Homo sapiens, UniProt P49759)
T5 construct: host or cells: T7 phage in E. coli (BL21-derived)
Procedure, shortened: as §1

CSNK1G2 = biological target: T6, CSNK1G2 (Homo sapiens, UniProt P78368)
T6 construct: purchased Ambit Biosciences Corp (KinomeScan); host or cells: T7 phage in E. coli host derived from BL21
Procedure, shortened: as §1

DDR2 = biological target: T7, DDR2 (Homo sapiens, UniProt Q16832)
T7 construct: purchased Ambit Biosciences Corp (KinomeScan); host or cells: T7 phage in E. coli host derived from BL21
Procedure, shortened: as §1

EGFR (L861Q) = biological target: T8, EGFR (L861Q) (Homo sapiens, UniProt P00533, L861Q)
T8 construct: host or cells: E. coli host derived from BL21, T7 phage lysate
Procedure, shortened: as §1

HCK = biological target: T9, HCK (Homo sapiens, UniProt P08631)
T9 construct: host or cells: E. coli host derived from BL21, infected with T7 phage
Procedure, shortened: as §1

[1] = biological target: T10, JAK1 (JH2domain-pseudokinase) (Homo sapiens, UniProt P23458)
T10 construct: JAK1 (JH2domain-pseudokinase); host or cells: T7 phage in E. coli host derived from BL21
Procedure, shortened: as §1

JNK3 = biological target: T11, JNK3 (Homo sapiens, UniProt P53779)
T11 construct: host or cells: T7 phage in E. coli host derived from BL21
Procedure, shortened: as §1

KIT (D816V) = biological target: T12, KIT (D816V) (Homo sapiens, UniProt P10721, D816V)
T12 construct: host or cells: T7 phage in E. coli host derived from BL21
Procedure, shortened: as §1

MET = biological target: T13, MET (Homo sapiens, UniProt P08581)
T13 construct: host or cells: E. coli derived from BL21, infected with T7 phage
Procedure, shortened: as §1

MST1R = biological target: T14, MST1R (Homo sapiens, UniProt Q04912)
T14 construct: host or cells: T7 phage in E. coli host derived from BL21
Procedure, shortened: as §1

NEK6 = biological target: T15, NEK6 (Homo sapiens, UniProt Q9HC98)
T15 construct: host or cells: T7 phage in E. coli host derived from BL21
Procedure, shortened: as §1

NEK7 = biological target: T16, NEK7 (Homo sapiens, UniProt Q8TDX7)
T16 construct: host or cells: T7 phage in E. coli host derived from BL21
Procedure, shortened: as §1

PFTK1 = biological target: T17, PFTK1 (Homo sapiens, UniProt O94921)
T17 construct: host or cells: E. coli host derived from the BL21 strain, infected with T7 phage
Procedure, shortened: as §1

PIK3C2B = biological target: T18, PIK3C2B (Homo sapiens, UniProt O00750)
T18 construct: host or cells: E. coli host derived from the BL21 strain, infected with T7 phage
Procedure, shortened: as §1

PRKD1 = biological target: T19, PRKD1 (Homo sapiens, UniProt Q15139)
T19 construct: purchased Ambit Biosciences Corp (KinomeScan); host or cells: E. coli host derived from BL21, infected with T7 phage
Procedure, shortened: as §1

RIPK2 = biological target: T20, RIPK2 (Homo sapiens, UniProt O43353)
T20 construct: host or cells: E. coli host derived from BL21, T7 phage lysate
Procedure, shortened: as §1

[2] = biological target: T21, RPS6KA4 (Kin.Dom.-1-N-terminal) (Homo sapiens, UniProt O75676)
T21 construct: RPS6KA4 (Kin.Dom.-1-N-terminal); host or cells: E. coli host derived from BL21, T7 phage lysate
Procedure, shortened: as §1

SNARK = biological target: T22, SNARK (Homo sapiens, UniProt Q9H093)
T22 construct: host or cells: E. coli host derived from the BL21 strain, T7 phage lysate
Procedure, shortened: as §1

T18 sequence (O00750 whole entry): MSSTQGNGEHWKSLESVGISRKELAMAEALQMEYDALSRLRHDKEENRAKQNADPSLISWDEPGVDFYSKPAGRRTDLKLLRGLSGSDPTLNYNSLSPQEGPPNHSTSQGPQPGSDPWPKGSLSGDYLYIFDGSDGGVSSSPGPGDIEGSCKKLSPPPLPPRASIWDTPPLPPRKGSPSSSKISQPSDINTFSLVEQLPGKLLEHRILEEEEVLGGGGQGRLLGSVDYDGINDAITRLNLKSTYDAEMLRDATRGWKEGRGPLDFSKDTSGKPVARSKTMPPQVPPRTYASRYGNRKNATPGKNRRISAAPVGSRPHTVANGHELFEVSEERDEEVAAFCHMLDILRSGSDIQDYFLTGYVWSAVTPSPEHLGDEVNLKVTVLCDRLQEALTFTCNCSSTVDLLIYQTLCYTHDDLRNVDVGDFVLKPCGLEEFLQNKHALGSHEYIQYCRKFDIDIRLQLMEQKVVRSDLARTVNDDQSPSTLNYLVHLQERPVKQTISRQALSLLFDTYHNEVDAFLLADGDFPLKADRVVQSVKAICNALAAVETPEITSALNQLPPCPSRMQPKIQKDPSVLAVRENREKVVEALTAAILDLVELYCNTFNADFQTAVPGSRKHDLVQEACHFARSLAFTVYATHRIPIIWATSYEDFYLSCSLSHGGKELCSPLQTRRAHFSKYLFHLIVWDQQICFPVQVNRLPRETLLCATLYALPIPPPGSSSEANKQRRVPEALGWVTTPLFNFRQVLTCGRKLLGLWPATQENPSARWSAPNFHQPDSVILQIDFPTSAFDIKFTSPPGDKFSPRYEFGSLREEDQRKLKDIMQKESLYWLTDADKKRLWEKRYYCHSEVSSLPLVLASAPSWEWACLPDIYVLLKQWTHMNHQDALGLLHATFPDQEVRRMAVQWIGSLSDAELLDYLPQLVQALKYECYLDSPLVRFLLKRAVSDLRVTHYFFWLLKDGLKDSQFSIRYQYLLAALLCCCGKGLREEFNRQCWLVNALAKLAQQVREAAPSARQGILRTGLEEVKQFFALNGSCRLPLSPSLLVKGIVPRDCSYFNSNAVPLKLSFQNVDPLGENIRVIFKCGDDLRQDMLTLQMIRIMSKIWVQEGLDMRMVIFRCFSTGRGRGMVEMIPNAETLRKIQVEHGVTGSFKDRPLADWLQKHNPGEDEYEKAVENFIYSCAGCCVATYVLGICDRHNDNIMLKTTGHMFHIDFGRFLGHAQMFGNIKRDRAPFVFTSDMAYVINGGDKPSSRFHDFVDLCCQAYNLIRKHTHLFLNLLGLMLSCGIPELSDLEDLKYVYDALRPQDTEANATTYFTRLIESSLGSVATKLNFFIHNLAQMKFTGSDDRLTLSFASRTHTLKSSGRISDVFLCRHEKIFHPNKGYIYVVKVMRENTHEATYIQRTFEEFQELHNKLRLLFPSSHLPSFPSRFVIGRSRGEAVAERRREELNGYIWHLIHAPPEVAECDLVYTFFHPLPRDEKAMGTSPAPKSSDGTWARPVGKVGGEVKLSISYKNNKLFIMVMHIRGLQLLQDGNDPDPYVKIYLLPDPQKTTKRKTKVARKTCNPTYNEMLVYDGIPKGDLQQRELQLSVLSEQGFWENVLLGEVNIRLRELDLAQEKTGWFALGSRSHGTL
T16 sequence (Q8TDX7 whole entry): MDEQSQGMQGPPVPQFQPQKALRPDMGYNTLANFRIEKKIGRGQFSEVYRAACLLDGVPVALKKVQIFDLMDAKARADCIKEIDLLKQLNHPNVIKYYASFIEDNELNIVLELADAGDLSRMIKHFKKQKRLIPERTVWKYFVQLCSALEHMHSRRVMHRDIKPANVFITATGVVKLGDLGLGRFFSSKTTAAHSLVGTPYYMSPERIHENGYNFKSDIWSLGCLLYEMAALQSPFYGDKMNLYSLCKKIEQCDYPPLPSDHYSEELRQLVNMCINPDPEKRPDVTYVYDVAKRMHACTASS
T2 sequence (Q96GD4 whole entry): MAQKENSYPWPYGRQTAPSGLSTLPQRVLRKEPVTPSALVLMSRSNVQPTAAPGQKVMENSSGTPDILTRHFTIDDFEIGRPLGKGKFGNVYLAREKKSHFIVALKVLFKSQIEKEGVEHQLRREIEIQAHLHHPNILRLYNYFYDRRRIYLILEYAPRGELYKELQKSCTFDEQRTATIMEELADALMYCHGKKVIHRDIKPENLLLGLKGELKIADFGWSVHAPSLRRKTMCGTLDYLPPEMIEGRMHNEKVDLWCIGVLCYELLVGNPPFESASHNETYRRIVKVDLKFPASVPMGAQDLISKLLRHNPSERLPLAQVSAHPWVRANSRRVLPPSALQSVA
T15 sequence (Q9HC98 whole entry): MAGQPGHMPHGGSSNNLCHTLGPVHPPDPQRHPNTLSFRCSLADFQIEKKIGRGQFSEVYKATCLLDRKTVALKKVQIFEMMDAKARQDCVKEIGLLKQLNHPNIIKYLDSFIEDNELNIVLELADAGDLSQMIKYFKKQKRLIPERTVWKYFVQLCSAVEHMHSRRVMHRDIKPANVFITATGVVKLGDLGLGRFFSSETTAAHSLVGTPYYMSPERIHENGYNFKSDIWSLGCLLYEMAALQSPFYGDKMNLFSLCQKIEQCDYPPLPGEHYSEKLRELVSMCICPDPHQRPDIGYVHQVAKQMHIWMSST
T14 sequence (Q04912 25-1400): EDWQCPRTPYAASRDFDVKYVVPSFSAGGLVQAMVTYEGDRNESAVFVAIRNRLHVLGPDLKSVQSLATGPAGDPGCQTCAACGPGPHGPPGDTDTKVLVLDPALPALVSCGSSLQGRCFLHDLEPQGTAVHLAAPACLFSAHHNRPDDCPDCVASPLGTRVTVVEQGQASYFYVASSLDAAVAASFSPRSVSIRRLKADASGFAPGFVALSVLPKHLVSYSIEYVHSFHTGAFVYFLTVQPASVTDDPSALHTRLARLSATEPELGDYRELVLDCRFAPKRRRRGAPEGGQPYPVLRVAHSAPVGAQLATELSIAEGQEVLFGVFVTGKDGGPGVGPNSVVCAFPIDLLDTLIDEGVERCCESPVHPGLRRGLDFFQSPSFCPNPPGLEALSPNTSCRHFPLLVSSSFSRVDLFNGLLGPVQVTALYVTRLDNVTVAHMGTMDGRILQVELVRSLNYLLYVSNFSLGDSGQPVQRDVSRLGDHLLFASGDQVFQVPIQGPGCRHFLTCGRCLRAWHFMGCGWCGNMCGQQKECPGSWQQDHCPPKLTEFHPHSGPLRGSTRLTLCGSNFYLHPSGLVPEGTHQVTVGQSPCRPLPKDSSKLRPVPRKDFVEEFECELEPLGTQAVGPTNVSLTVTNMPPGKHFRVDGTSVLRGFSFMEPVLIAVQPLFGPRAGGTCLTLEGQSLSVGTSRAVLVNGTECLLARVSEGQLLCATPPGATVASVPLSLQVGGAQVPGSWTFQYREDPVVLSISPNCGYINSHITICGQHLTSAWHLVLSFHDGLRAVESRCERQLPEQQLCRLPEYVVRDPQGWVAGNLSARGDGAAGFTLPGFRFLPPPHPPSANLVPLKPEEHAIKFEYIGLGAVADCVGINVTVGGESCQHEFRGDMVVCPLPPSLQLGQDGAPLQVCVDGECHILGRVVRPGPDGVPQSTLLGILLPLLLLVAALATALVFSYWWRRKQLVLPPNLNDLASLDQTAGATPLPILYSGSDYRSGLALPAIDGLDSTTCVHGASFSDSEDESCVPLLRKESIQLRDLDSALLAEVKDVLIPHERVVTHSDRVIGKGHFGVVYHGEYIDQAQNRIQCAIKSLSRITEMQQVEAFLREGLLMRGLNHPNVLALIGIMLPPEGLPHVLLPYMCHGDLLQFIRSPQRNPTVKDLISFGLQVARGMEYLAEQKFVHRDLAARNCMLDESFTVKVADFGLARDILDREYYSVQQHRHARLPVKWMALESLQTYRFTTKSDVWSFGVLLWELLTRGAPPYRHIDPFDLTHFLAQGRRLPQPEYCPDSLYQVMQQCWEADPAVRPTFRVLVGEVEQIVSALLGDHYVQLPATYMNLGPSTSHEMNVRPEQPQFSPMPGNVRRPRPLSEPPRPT
T1 sequence (Q96D53 whole entry): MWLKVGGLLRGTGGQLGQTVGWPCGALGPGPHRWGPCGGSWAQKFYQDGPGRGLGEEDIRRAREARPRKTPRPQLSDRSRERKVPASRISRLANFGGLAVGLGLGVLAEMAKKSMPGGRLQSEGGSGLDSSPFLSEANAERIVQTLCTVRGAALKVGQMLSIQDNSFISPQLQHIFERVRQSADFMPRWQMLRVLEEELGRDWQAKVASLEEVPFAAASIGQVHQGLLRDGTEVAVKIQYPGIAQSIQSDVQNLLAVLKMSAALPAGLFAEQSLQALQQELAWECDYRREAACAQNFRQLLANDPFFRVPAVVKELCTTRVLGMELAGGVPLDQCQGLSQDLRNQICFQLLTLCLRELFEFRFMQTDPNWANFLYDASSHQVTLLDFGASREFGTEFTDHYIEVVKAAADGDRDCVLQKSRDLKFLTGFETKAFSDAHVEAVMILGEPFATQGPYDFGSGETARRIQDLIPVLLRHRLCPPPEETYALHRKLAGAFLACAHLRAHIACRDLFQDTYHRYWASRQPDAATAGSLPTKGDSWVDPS
T10 sequence (P23458 583-855 limits assumed): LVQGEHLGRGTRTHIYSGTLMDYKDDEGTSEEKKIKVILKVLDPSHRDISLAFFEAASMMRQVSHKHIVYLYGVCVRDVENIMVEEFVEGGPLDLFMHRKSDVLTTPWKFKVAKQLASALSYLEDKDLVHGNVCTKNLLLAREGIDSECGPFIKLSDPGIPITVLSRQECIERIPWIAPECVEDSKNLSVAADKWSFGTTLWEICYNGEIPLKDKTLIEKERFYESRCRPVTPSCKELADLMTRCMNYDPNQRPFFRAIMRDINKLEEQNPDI

C#Cc1cccc(Nc2ncnc3cc(OC)c(OCCCN4CCOCC4)cc23)c1 [NRC-2694, N-(3-ethylnylphenyl)-7-methoxy-6-[3-(4-morpholinyl)propoxy]-4-quinazolinamine]
% Ctrl @ 10000 nM (ADCK4): 14 % Ctrl | % Ctrl @ 10000 nM (AURKB): 56 % Ctrl | % Ctrl @ 10000 nM (BLK): 4.4 % Ctrl | % Ctrl @ 10000 nM (CAMK1G): 75 % Ctrl | % Ctrl @ 10000 nM (CLK1): 31 % Ctrl | % Ctrl @ 10000 nM (CSNK1G2): 76 % Ctrl | % Ctrl @ 10000 nM (DDR2): 76 % Ctrl | % Ctrl @ 10000 nM (EGFR (L861Q)): 0 % Ctrl | % Ctrl @ 10000 nM (HCK): 17 % Ctrl | % Ctrl @ 10000 nM [1]: 81 % Ctrl | % Ctrl @ 10000 nM (JNK3): 77 % Ctrl | % Ctrl @ 10000 nM (KIT (D816V)): 17 % Ctrl | % Ctrl @ 10000 nM (MET): 33 % Ctrl | % Ctrl @ 10000 nM (MST1R): 94 % Ctrl | % Ctrl @ 10000 nM (NEK6): 94 % Ctrl | % Ctrl @ 10000 nM (NEK7): 78 % Ctrl | % Ctrl @ 10000 nM (PFTK1): 71 % Ctrl | % Ctrl @ 10000 nM (PIK3C2B): 93 % Ctrl | % Ctrl @ 10000 nM (PRKD1): 9.6 % Ctrl | % Ctrl @ 10000 nM (RIPK2): 2.4 % Ctrl | % Ctrl @ 10000 nM [2]: 84 % Ctrl | % Ctrl @ 10000 nM (SNARK): 19 % Ctrl
